Measurements: US20050208496A1, “Methods of testing for bronchial asthma or chronic obstructive pulmonary disease” (Genox Research, Inc., priority 2002, published 2005)

System: mouse counterpart genes
Assay: Mouse GeneChip (MG-U74A to MG-U74C) analysis of lung and trachea of the OVA antigen-exposed bronchial hypersensitivity model, S-Sal group versus S-OVA group
Type: in vivo
Conditions: S-Sal group vs S-OVA group

Substance: ovalbumin [OVA antigen, ovalbumin antigen used for sensitization and inhalation to induce bronchial hypersensitivity in mice]
- Fold Change, interferon gamma inducible protein 30 (mouse probe 97444_at) (3rd, chip A, P/A call A): 1.8
- Fold Change, matrix metalloproteinase 7 (mouse probe 92917_at) (3rd, chip A, P/A call A): 1.6
- Fold Change, matrix metalloproteinase 7 (mouse probe 162318_r_at) (3rd, chip A, P/A call A): 1.3
- Fold Change, met proto-oncogene (mouse probe 100309_at) (3rd, chip A, P/A call A): 1.9
- Fold Change, phosphotidylinositol transfer protein, beta (mouse probe 102697_at) (3rd, chip A, P/A call A): 0.5
- Fold Change, A kinase anchor protein 2 (mouse probe 101435_at) (3rd, chip A, P/A call P): 1
- Fold Change, DNA segment. Chr 16. ERATO Doi 269, expressed (mouse probe 97821_at) (3rd, chip A, P/A call P): 1
- Fold Change, DNA segment. Chr 16. ERATO Doi 269, expressed (mouse probe 97823_g_at) (3rd, chip A, P/A call P): 1.1
- Fold Change, a disintegrin and metalloprotease domain 8 (mouse probe 103024_at) (3rd, chip A, P/A call P): 4.6
- Fold Change, arachidonate 15-lipoxygenase (mouse probe 98758_at) (3rd, chip A, P/A call P): 8
- Fold Change, cholesterol 25-hydroxylase (mouse probe 104509_at) (3rd, chip A, P/A call P): 1.9
- Fold Change, claudin 4 (mouse probe 101410_at) (3rd, chip A, P/A call P): 1
- Fold Change, decay accelerating factor 1 (mouse probe 103617_at) (3rd, chip A, P/A call P): 1.3
- Fold Change, interferon-stimulated protein (20 kDa) (mouse probe 103432_at) (3rd, chip A, P/A call P): 1
- Fold Change, interleukin 1 receptor-like 1 (mouse probe 98500_at) (3rd, chip A, P/A call P): 2.4
- Fold Change, low density lipoprotein receptor-related protein associated protein 1 (mouse probe 100086_at) (3rd, chip A, P/A call P): 0.833
- Fold Change, low density lipoprotein receptor-related protein associated protein 1 (mouse probe 161988_f_at) (3rd, chip A, P/A call P): 1.1
- Fold Change, membrane-associated protein 17 (mouse probe 96935_at) (3rd, chip A, P/A call P): 1.1
- Fold Change, polycystic kidney disease 2 (mouse probe 100951_at) (3rd, chip A, P/A call P): 0.667
- Fold Change, histocompatibility 2, Q region locus 7 (mouse probe 98438_f_at) (3rd, chip A, P/A call P, counterpart of human probe 37420_i_at): 1.2
- Fold Change, histocompatibility 2, Q region locus 7 (mouse probe 98438_f_at) (3rd, chip A, P/A call P, counterpart of human probe 37421_f_at): 1.2
- Fold Change, A kinase (PRKA) anchor protein 10 (mouse probe 163162_at) (3rd, chip B, P/A call A): 0.526
- Fold Change, ESTs Putative Ortholog of ISG-54K gene (mouse probe 164273_at) (3rd, chip B, P/A call A): 1.5
- Fold Change, ESTs, Highly similar to AF116721 8 PRO0907 [H. sapiens] (mouse probe 114151_at) (3rd, chip B, P/A call A): 1.4
- Fold Change, decay accelerating factor 1 (mouse probe 164905_r_at) (3rd, chip B, P/A call A): 1.1
- Fold Change, interferon gamma inducible protein 30 (mouse probe 164423_at) (3rd, chip B, P/A call A): 4.1
- Fold Change, secreted end transmembrane 1 (mouse probe 115133_at) (3rd, chip B, P/A call A): 0.625
- Fold Change, viral hemorrhagic septicemia virus(VHSV) induced gene 1 (mouse probe 109385_at) (3rd, chip B, P/A call A): 0.286
- Fold Change, decay accelerating factor 1 (mouse probe 107626_at) (3rd, chip B, P/A call P): 1.9
- Fold Change, deleted in bladder cancer chromosome region candidate 1 (human) Putative Ortholog (mouse probe 166806_at) (3rd, chip C, P/A call P): 1
- Fold Change, interferon-induced protein with tetratricopeptide repeats 1 (mouse probe 168299_f_at) (3rd, chip C, P/A call P): 1.2
- Fold Change, 2′-5′ oligoadenylate synthetase 1A (mouse Probe ID 102717_at) (chip A, 1st): 1.6
- Fold Change, DnaJ (Hsp40) homolog, subfamily A, member 1 (mouse Probe ID 97261_at) (chip A, 1st): 0.476
- Fold Change, SAM domain and HD domain, 1 (mouse Probe ID 103080_at) (chip A, 1st): 1.3
- Fold Change, cadherin 6 (mouse Probe ID 101730_at) (chip A, 1st): 0.833
- Fold Change, cyclin D3 (mouse Probe ID 160545_at) (chip A, 1st): 0.625
- Fold Change, growth arrest and DNA-damage-inducible 45 gamma (mouse Probe ID 101979_at) (chip A, 1st): 2.3
- Fold Change, heparan sulfate (glucosamine) 3-)-sulfotransferase 1 (mouse Probe ID 102410_at) (chip A, 1st): 1.4
- Fold Change, hydroxysteroid (17-beta) dehydrogenase 2 (mouse Probe ID 101891_at) (chip A, 1st): 1.8
- Fold Change, intercellular adhesion molecule (mouse Probe ID 96752_at) (chip A, 1st): 1.3
- Fold Change, intercellular adhesion molecule (mouse Probe ID 1011414_at) (chip A, 1st): 1
- Fold Change, interferon-induced protein with tetratricopeptide repeats 1 (mouse Probe ID 100981_at) (chip A, 1st): 1.8
- Fold Change, interferon-stimulated protein (15 kDa) (mouse Probe ID 98822_at) (chip A, 1st): 4.3
- Fold Change, interleukin 13 receptor, alpha 2 (mouse Probe ID 95344_at) (chip A, 1st): 1.4
- Fold Change, nitric oxide synthase 2, inducible, macrophage (mouse Probe ID 104420_at) (chip A, 1st): 2.3
- Fold Change, osteoblast specific factor 2 (fasciclin I-like) (mouse Probe ID 92593_at) (chip A, 1st): 1.2
- Fold Change, proteosome (prosome, macropain) subunit, beta type 9 (mouse Probe ID 93085_at) (chip A, 1st): 2.1
- Fold Change, sialyltransferase 1 (beta-galactoside alpha-2,6-sialyltransferase) (mouse Probe ID 94431_at) (chip A, 1st): 0.385
- Fold Change, small inducible cytokine B subfamily (Cys-X-Cys), member 10 (mouse Probe ID 93858_at) (chip A, 1st): 1.3
- Fold Change, thioredoxin reductase 1 (mouse Probe ID 99985_at) (chip A, 1st): 1.2
- Fold Change, thioredoxin reductase 1 (mouse Probe ID 161043_r_at) (chip A, 1st): 1.4
- Fold Change, thrombospondin 1 (mouse Probe ID 160469_at) (chip A, 1st): 1.1
- Fold Change, transglutaminase 2, C polypeptide (mouse Probe ID 93352_at) (chip A, 1st): 1
- Fold Change, 2′-5′ oligoadenylate synthetase 1A (mouse Probe ID 102717_at) (chip A, 2nd): 1.7
- Fold Change, SAM domain and HD domain, 1 (mouse Probe ID 103080_at) (chip A, 2nd): 1.3
- Fold Change, cadherin 6 (mouse Probe ID 101730_at) (chip A, 2nd): 1.1
- Fold Change, cyclin D3 (mouse Probe ID 160545_at) (chip A, 2nd): 1.1
- Fold Change, fructose bisphosphatase 1 (mouse Probe ID 96918_at) (chip A, 2nd): 2.3
- Fold Change, growth arrest and DNA-damage-inducible 45 gamma (mouse Probe ID 101979_at) (chip A, 2nd): 5.4
- Fold Change, heparan sulfate (glucosamine) 3-)-sulfotransferase 1 (mouse Probe ID 102410_at) (chip A, 2nd): 0.4
- Fold Change, hydroxysteroid (17-beta) dehydrogenase 2 (mouse Probe ID 101891_at) (chip A, 2nd): 0.667
- Fold Change, intercellular adhesion molecule (mouse Probe ID 96752_at) (chip A, 2nd): 1.2
- Fold Change, intercellular adhesion molecule (mouse Probe ID 1011414_at) (chip A, 2nd): 0.357
- Fold Change, interferon-induced protein with tetratricopeptide repeats 1 (mouse Probe ID 100981_at) (chip A, 2nd): 1.9
- Fold Change, interferon-stimulated protein (15 kDa) (mouse Probe ID 98822_at) (chip A, 2nd): 4.2
- Fold Change, interleukin 13 receptor, alpha 2 (mouse Probe ID 95344_at) (chip A, 2nd): 1.5
- Fold Change, nitric oxide synthase 2, inducible, macrophage (mouse Probe ID 104420_at) (chip A, 2nd): 1.1
- Fold Change, proteosome (prosome, macropain) subunit, beta type 9 (mouse Probe ID 93085_at) (chip A, 2nd): 1.6
- Fold Change, sialyltransferase 1 (beta-galactoside alpha-2,6-sialyltransferase) (mouse Probe ID 94431_at) (chip A, 2nd): 1.3
- Fold Change, small inducible cytokine B subfamily (Cys-X-Cys), member 10 (mouse Probe ID 93858_at) (chip A, 2nd): 1.7
- Fold Change, thioredoxin reductase 1 (mouse Probe ID 161043_r_at) (chip A, 2nd): 1.8
- Fold Change, thioredoxin reductase 1 (mouse Probe ID 161284_r_at) (chip A, 2nd): 1.3
- Fold Change, thrombospondin 1 (mouse Probe ID 160469_at) (chip A, 2nd): 1.7
- Fold Change, transforming growth factor, beta 2 (mouse Probe ID 93300_at) (chip A, 2nd): 0.833
- Fold Change, transglutaminase 2, C polypeptide (mouse Probe ID 93352_at) (chip A, 2nd): 1.3
- Fold Change, 2′-5′ oligoadenylate synthetase 1A (mouse Probe ID 102717_at) (chip A, 3rd): 2.2
- Fold Change, DnaJ (Hsp40) homolog, subfamily A, member 1 (mouse Probe ID 97261_at) (chip A, 3rd): 0.833
- Fold Change, cyclin D3 (mouse Probe ID 160545_at) (chip A, 3rd): 0.833
- Fold Change, fructose bisphosphatase 1 (mouse Probe ID 96918_at) (chip A, 3rd): 1.7
- Fold Change, growth arrest and DNA-damage-inducible 45 gamma (mouse Probe ID 101979_at) (chip A, 3rd): 1.9
- Fold Change, heparan sulfate (glucosamine) 3-)-sulfotransferase 1 (mouse Probe ID 102410_at) (chip A, 3rd): 1
- Fold Change, intercellular adhesion molecule (mouse Probe ID 1011414_at) (chip A, 3rd): 1
- Fold Change, interferon-induced protein with tetratricopeptide repeats 1 (mouse Probe ID 100981_at) (chip A, 3rd): 1.6
- Fold Change, interferon-stimulated protein (15 kDa) (mouse Probe ID 98822_at) (chip A, 3rd): 2.2
- Fold Change, interleukin 13 receptor, alpha 2 (mouse Probe ID 95344_at) (chip A, 3rd): 1.2
- Fold Change, osteoblast specific factor 2 (fasciclin I-like) (mouse Probe ID 92593_at) (chip A, 3rd): 1
- Fold Change, proteosome (prosome, macropain) subunit, beta type 9 (mouse Probe ID 93085_at) (chip A, 3rd): 1.1
- Fold Change, sialyltransferase 1 (beta-galactoside alpha-2,6-sialyltransferase) (mouse Probe ID 94431_at) (chip A, 3rd): 1.6
- Fold Change, small inducible cytokine B subfamily (Cys-X-Cys), member 10 (mouse Probe ID 93858_at) (chip A, 3rd): 2
- Fold Change, thioredoxin reductase 1 (mouse Probe ID 99985_at) (chip A, 3rd): 1
- Fold Change, thioredoxin reductase 1 (mouse Probe ID 161043_r_at) (chip A, 3rd): 0.588
- Fold Change, thrombospondin 1 (mouse Probe ID 160469_at) (chip A, 3rd): 1.5
- Fold Change, transforming growth factor, beta 2 (mouse Probe ID 93300_at) (chip A, 3rd): 0.5
- Fold Change, transglutaminase 2, C polypeptide (mouse Probe ID 93352_at) (chip A, 3rd): 0.833
- Fold Change, RIKEN cDNA 2610017M01 gene (mouse Probe ID 105606_at) (chip B, 1st): 1.5
- Fold Change, RIKEN cDNA 2610017M01 gene (mouse Probe ID 163053_at) (chip B, 1st): 1
